Experimental data taken from patent US11464793B2, “Nutritional formulations including human milk oligosaccharides and antioxidants and uses thereof” (priority 2010, dated 2022).

Experiments:
[1] = tested on: respiratory syncytial virus (RSV); assay: In vitro inhibition of viral infectivity by purified HMOs (Example 36), RSV; format: cell-based; settings: co-incubation of virus (about 500 to 1,000 units/mL) with HMO at 1 or 10 mg/mL
Method: In this Example, the effect of purified human milk oligosaccharides (HMO) on in vitro inhibition of viral infectivity is analyzed.
Samples are prepared by co-incubation of a uniform virus dose of from about 500 units/mL to about 1,000 units/mL of one of three respiratory viruses: (1) respiratory syncytial virus (RSV); (2) human parainfluenza virus (HPIV3); or (3) H1N1 influenza virus with one of the following HMOs: (1) 3′-sialyllactose (3′SL); (2) 6′-sialyllactose (6′SL); (3) 3′-fucosyllactose (3′FL); (4) 2′-fucosyllactose (2′FL); (5) lacto-N-neotetraose (LNnT); or (6) sialic acid (SA). The HMOs are added at concentrations of either 1 mg/mL or 10 mg/mL.

[2] = tested on: interleukin 10 (IL-10); assay: IL-10 in supernatants of peripheral blood mononuclear cells with or without RSV (Example 39); format: cell-based, human; settings: in the presence or absence of RSV; FIGS. 7-10
Method: Specifically, either 3′SL or 6′SL is added, at concentrations of 0.1 mg/mL, 0.2 mg/mL, or 0.5 mg/mL to fresh peripheral blood mononuclear cells and incubated at 37° C. in 5% CO2 to pretreat the cells for approximately 24 hours. LNnT is added, at concentrations of 0.1 mg/mL, 0.2 mg/mL, or 1 mg/mL to fresh peripheral blood mononuclear cells and incubated at 37° C. in 5% CO2 to pretreat the cells for approximately 24 hours. Lactose is included as a carbohydrate control. Matched endotoxin unit concentration controls are included to allow differentiation of ingredient effects from inherent low levels of endotoxin. Some variables are then incubated with RSV at a multiplicity of infection (MOI) of 0.1 for approximately 1 hour at 37° C. in 5% in CO2. Uninfected control variables are incubated with medium for approximately 1 hour at 37° C. in 5% CO2. […]
Cytokines are measured in supernatants for each variable at 24 and 48 hours to assess the effects of HMOs on the early immune response to RSV. Cytokines are measured using custom Bio-Plex Human cytokine kits from Bio-Rad. […] A positive con-elation exists between RSV clinical disease severity in children (as measured by: length of hospital stay, fever, and number of days supplemental O2 is required) and serum IP-10. […]

[3] = tested on: interferon-inducible protein 10 (IP-10); assay: IP-10 in supernatants of RSV-infected peripheral blood mononuclear cells pretreated with HMO (Example 39); format: cell-based, human; settings: for IP-10 in virus-infected variables: PBMC of two donors, 24 h pretreatment, RSV MOI 0.1, supernatants at 24 and 48 hours, FIGS. 3-6; for IP-10 level reached relative to uninfected controls: RSV-infected PBMC; for dampening of virus-induced inflammation as measured by a decrease in IP-10, comparison: compared with 3′SL; for reduction of inflammation caused by RSV: pretreatment for 24 hours
Method: (§1) Specifically, either 3′SL or 6′SL is added, at concentrations of 0.1 mg/mL, 0.2 mg/mL, or 0.5 mg/mL to fresh peripheral blood mononuclear cells and incubated at 37° C. in 5% CO2 to pretreat the cells for approximately 24 hours. LNnT is added, at concentrations of 0.1 mg/mL, 0.2 mg/mL, or 1 mg/mL to fresh peripheral blood mononuclear cells and incubated at 37° C. in 5% CO2 to pretreat the cells for approximately 24 hours. Lactose is included as a carbohydrate control. Matched endotoxin unit concentration controls are included to allow differentiation of ingredient effects from inherent low levels of endotoxin. Some variables are then incubated with RSV at a multiplicity of infection (MOI) of 0.1 for approximately 1 hour at 37° C. in 5% in CO2. Uninfected control variables are incubated with medium for approximately 1 hour at 37° C. in 5% CO2. After approximately one hour, fresh medium alone, or fresh medium containing the appropriate concentration of 3′SL, 6′SL, LNnT, lactose, or endotoxin is added to the appropriate tubes and the cells are incubated for 48 hours at 37° C. in 5% CO2. Supernatants are collected at 24 and 48 hours post-infection.
(§2) Cytokines are measured in supernatants for each variable at 24 and 48 hours to assess the effects of HMOs on the early immune response to RSV. Cytokines are measured using custom Bio-Plex Human cytokine kits from Bio-Rad. Results for interferon-inducible protein 10 (IP-10, also known as CXCL 10) are shown in FIGS. 3 and 4 for 3′SL and 6′SL, and in FIGS. 5 and 6 for LNnT. IP-10 is a CXC chemokine that attracts, binds to and activates the CXCR3 receptor on natural killer cells and memory T cells. IP-10 is expressed by monocytes and a number of other cells, and is induced by interferon. A positive con-elation exists between RSV clinical disease severity in children (as measured by: length of hospital stay, fever, and number of days supplemental O2 is required) and serum IP-10. Therefore, a decrease in IP-10 signals a decrease in severity of RSV disease experienced.

[4] = tested on: H1N1 influenza virus; format: cell-based; settings: for IC50 (mg HMO/mL) H1N1 Influenza: co-incubation of virus (about 500 to 1,000 units/mL) with HMO at 1 or 10 mg/mL
[5] = tested on: monocyte-derived cytokines; assay: Monocyte-derived cytokines in peripheral blood mononuclear cells with or without RSV (Example 39); format: cell-based, human; settings: PBMC
Method: as §1, §2

[6] = tested on: human parainfluenza virus (HPIV3); format: cell-based; settings: co-incubation of virus (about 500 to 1,000 units/mL) with HMO at 1 or 10 mg/mL
[7] = tested on: H1N1 influenza virus; assay: microbe, parasite or virus in culture; format: cell-based; settings: HMO at 10 mg/mL, MDCK cells, FIG. 1

Row | SMILES | IC50 (mg HMO/mL) RSV [1] [mg HMO/mL] | IL-10 concentration [2] | IP-10 in virus-infected variables [3] | IP-10 level reached relative to uninfected controls [3] | dampening of virus-induced inflammation as measured by a decrease in IP-10, comparison [3] | reduction of inflammation caused by RSV [3] | IC50 (mg HMO/mL) H1N1 Influenza [4] [mg HMO/mL] | production of monocyte-derived cytokines (IL-10, MIP-1β, Interferon-γ, IL-8, IL-1α, IL-1β, IL-1ra) [5] | RSV-induced IP-10, Donor B ([3]; Donor B, 0.1, 0.2 or 0.5 mg/mL) | RSV-induced IP-10, Donor E ([3]; Donor E, 0.1, 0.2 or 0.5 mg/mL) | anti-viral activity against H1N1 influenza virus ([4]; HMO at 1 mg/mL) | IC50 (mg HMO/mL) HPIV3 [6] [mg HMO/mL] | inhibition of H1N1 virus infectivity [7] | inhibition at 10000 µg/mL ([7]; Influenza A virus, H1N1, read-out: inhibition of H1N1 virus infectivity) [%]
1 | CC(=O)N[C@H]1[C@H](O[C@H]2[C@@H](O)[C@@H](CO)O[C@@H](O[C@H]3[C@H](O)[C@@H](O)C(O)O[C@@H]3CO)[C@@H]2O)O[C@H](CO)[C@@H](O[C@@H]2O[C@H](CO)[C@H](O)[C@H](O)[C@H]2O)[C@@H]1O (mixture of isomers) [LNnT, lacto-N-neotetraose] | >10 | increases IL-10 concentration in a dose-dependent manner | clearly downregulates IP-10 | reduce IP-10 to levels found in uninfected controls | more effective than 3′SL | effective in reducing inflammation caused by RSV | >10 | immunomodulatory in the presence or absence of the virus |  |  |  |  |  | 
2 | CC(=O)N[C@H]1[C@H]([C@H](O)[C@H](O)CO)O[C@@](O[C@H]2[C@@H](O)[C@@H](CO)O[C@@H](O[C@H]3[C@H](O)[C@@H](O)C(O)O[C@@H]3CO)[C@@H]2O)(C(=O)O)C[C@@H]1O (stereo partly shown) [3′SL, 3′-sialyllactose] | >10 |  | dampen RSV-induced IP-10 |  |  | effective in reducing inflammation caused by RSV | ~5 | immunomodulatory in the presence or absence of the virus | not effective | downregulates RSV-induced IP-10 | inhibited | >10 |  | 
3 | CC(=O)N[C@H]1[C@H]([C@H](O)[C@H](O)CO)O[C@@](OC[C@H]2O[C@@H](O[C@H]3[C@H](O)[C@@H](O)[C@H](O)O[C@@H]3CO)[C@H](O)[C@@H](O)[C@H]2O)(C(=O)O)C[C@@H]1O [6′SL, 6′-sialyllactose] | >10 | increases interleukin 10 (IL-10) concentration in a dose-dependent manner | clearly downregulates IP-10 | reduce IP-10 to levels found in uninfected controls | more effective than 3′SL | effective in reducing inflammation caused by RSV | ~10 | immunomodulatory in the absence of the virus |  |  |  | >10 | approximately 60% | 
4 | CC(=O)N[C@H]1[C@H]([C@H](O)[C@H](O)CO)OC(O)(C(=O)O)C[C@@H]1O (stereo partly shown) [SA, sialic acid] |  |  |  |  |  |  |  |  |  |  |  |  |  | > 90
